This assay deals with human adenosine A2b receptor (Homo sapiens (Human), UniProt P29275). Kind of assay: Cellular in vitro reporter gene test for A2b receptor activity (CHO-K1, CRE-luciferase, NECA stimulation). Format: cell-based. The note with it: recombinant CHO-K1 cell line, CRE-luciferase reporter, antagonism of EC50 concentration of NECA; in some cases means of several determinations, rounded to two significant figures; read-out: A2b receptor IC50. An outline of the steps:
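CHO-K1 cells with CRE-driven luciferase; antagonists co-incubated with NECA at its EC50, determined in a pre-experiment on each test day. Luciferase read by luminescence 3 h after NECA addition.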

Structures are written as SMILES.

human adenosine A2b receptor, sequence (P29275 whole entry): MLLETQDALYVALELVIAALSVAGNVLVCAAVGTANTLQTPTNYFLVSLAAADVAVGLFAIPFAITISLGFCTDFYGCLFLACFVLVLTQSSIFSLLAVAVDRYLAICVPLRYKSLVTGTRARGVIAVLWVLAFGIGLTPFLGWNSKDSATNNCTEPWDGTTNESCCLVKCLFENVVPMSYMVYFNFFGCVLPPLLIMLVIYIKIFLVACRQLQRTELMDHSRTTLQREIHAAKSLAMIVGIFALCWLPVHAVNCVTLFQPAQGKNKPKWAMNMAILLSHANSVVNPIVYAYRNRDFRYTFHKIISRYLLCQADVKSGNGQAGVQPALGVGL

As for `Cc1c(Cn2nc[nH]c2=O)sc2c1c(=O)n(CC(C)(C)C)c(=O)n2CC1CCCO1` (single isomer, unassigned) [Example 431, 3-(2,2-Dimethylpropyl)-5-methyl-6-[(5-oxo-4,5-dihydro-1H-1,2,4-triazol-1-yl)methyl]-1-(tetrahydrofuran-2-ylmethyl)thieno[2,3-d]pyrimidine-2,4(1H,3H)-dione], the half-maximal inhibitory concentration (IC50) is 740 nM.
Next, `Cc1c(Cn2nc[nH]c2=O)sc2c1c(=O)n(CC(F)(F)F)c(=O)n2CC1CCCO1` (single isomer, unassigned) [Example 435, 5-Methyl-6-[(5-oxo-4,5-dihydro-1H-1,2,4-triazol-1-yl)methyl]-1-(tetrahydrofuran-2-ylmethyl)-3-(2,2,2-trifluoroethyl)thieno[2,3-d]pyrimidine-2,4(1H,3H)-dione]: 43 nM.
Regarding `Cc1c(Cn2nc[nH]c2=O)sc2c1c(=O)n(CC(F)(F)F)c(=O)n2CC1CCCO1` (single isomer, unassigned) [Example 436, 5-Methyl-6-[(5-oxo-4,5-dihydro-1H-1,2,4-triazol-1-yl)methyl]-1-(tetrahydrofuran-2-ylmethyl)-3-(2,2,2-trifluoroethyl)thieno[2,3-d]pyrimidine-2,4(1H,3H)-dione], the half-maximal inhibitory concentration (IC50) came to 65 nM.
`COC(C)Cn1c(=O)c2c(C)c(Cn3nc[nH]c3=O)sc2n(CCC(F)(F)F)c1=O` (single isomer, unassigned) [Example 441, 3-(2-Methoxypropyl)-5-methyl-6-[(5-oxo-4,5-dihydro-1H-1,2,4-triazol-1-yl)methyl]-1-(3,3,3-trifluoropropyl)thieno[2,3-d]pyrimidine-2,4(1H,3H)-dione]: the IC50 came to 8.6 nM.
With `COC(C)Cn1c(=O)c2c(C)c(Cn3nc[nH]c3=O)sc2n(CCC(F)(F)F)c1=O` (single isomer, unassigned) [Example 442, 3-(2-Methoxypropyl)-5-methyl-6-[(5-oxo-4,5-dihydro-1H-1,2,4-triazol-1-yl)methyl]-1-(3,3,3-trifluoropropyl)thieno[2,3-d]pyrimidine-2,4(1H,3H)-dione], the IC50 amounted to 60 nM.
Next, `Cc1c(CN2CCNC2=NC#N)sc2c1c(=O)n(CC(C)(C)C)c(=O)n2CC1CCCO1` (single isomer, unassigned) [Example 447, [1-{[3-(2,2-Dimethylpropyl)-5-methyl-2,4-dioxo-1-(tetrahydrofuran-2-ylmethyl)-1,2,3,4-tetrahydrothieno[2,3-d]pyrimidin-6-yl]methyl}imidazolidin-2-ylidene]cyanamide]: 9.7 nM; `Cc1c(CN2CCNC2=NC#N)sc2c1c(=O)n(CC(C)(C)C)c(=O)n2CC1CCCO1` (single isomer, unassigned) [Example 448, [1-{[3-(2,2-Dimethylpropyl)-5-methyl-2,4-dioxo-1-(tetrahydrofuran-2-ylmethyl)-1,2,3,4-tetrahydrothieno[2,3-d]pyrimidin-6-yl]methyl}imidazolidin-2-ylidene]cyanamide]: 17 nM; `Cc1c(CN2CCNC2=NC#N)sc2c1c(=O)n(CC(F)(F)F)c(=O)n2CC1CCO1` (single isomer, unassigned) [Example 449, [1-{[5-Methyl-1-(oxetan-2-ylmethyl)-2,4-dioxo-3-(2,2,2-trifluoroethyl)-1,2,3,4-tetrahydrothieno[2,3-d]pyrimidin-6-yl]methyl}imidazolidin-2-ylidene]cyanamide]: 54 nM.
Regarding `Cc1c(CN2CCNC2=NC#N)sc2c1c(=O)n(CC(F)(F)F)c(=O)n2CC1CCO1` (single isomer, unassigned) [Example 450, [1-{[5-Methyl-1-(oxetan-2-ylmethyl)-2,4-dioxo-3-(2,2,2-trifluoroethyl)-1,2,3,4-tetrahydrothieno[2,3-d]pyrimidin-6-yl]methyl}imidazolidin-2-ylidene]cyanamide], the IC50 worked out at 14 nM.
`COC(C)Cn1c(=O)c2c(C)c(CN3CCNC3=NC#N)sc2n(CCC(F)(F)F)c1=O` (single isomer, unassigned) [Example 455, [1-{[3-(2-Methoxypropyl)-5-methyl-2,4-dioxo-1-(3,3,3-trifluoropropyl)-1,2,3,4-tetrahydrothieno[2,3-d]pyrimidin-6-yl]methyl}imidazolidin-2-ylidene]cyanamide]: the IC50 came to 3.6 nM.
With `COC(C)Cn1c(=O)c2c(C)c(CN3CCNC3=NC#N)sc2n(CCC(F)(F)F)c1=O` (single isomer, unassigned) [Example 456, [1-{[3-(2-Methoxypropyl)-5-methyl-2,4-dioxo-1-(3,3,3-trifluoropropyl)-1,2,3,4-tetrahydrothieno[2,3-d]pyrimidin-6-yl]methyl}imidazolidin-2-ylidene]cyanamide], the IC50 is 15 nM.
Take `COC(=O)N=C1NCCN1Cc1sc2c(c1C)c(=O)n(C(C)C)c(=O)n2CC1CCO1` (single isomer, unassigned) [Example 457, Methyl [1-{[3-isopropyl-5-methyl-1-(oxetan-2-ylmethyl)-2,4-dioxo-1,2,3,4-tetrahydrothieno[2,3-d]pyrimidin-6-yl]methyl}imidazolidin-2-ylidene]carbamate]: the IC50 was 7.1 nM.
Turning to `COC(=O)N=C1NCCN1Cc1sc2c(c1C)c(=O)n(C(C)C)c(=O)n2CC1CCO1` (single isomer, unassigned) [Example 458, Methyl [1-{[3-isopropyl-5-methyl-1-(oxetan-2-ylmethyl)-2,4-dioxo-1,2,3,4-tetrahydrothieno[2,3-d]pyrimidin-6-yl]methyl}imidazolidin-2-ylidene]carbamate], the IC50 worked out at 34 nM.
Regarding `COC(=O)N=C1NCCN1Cc1sc2c(c1C)c(=O)n(C(C)C)c(=O)n2CC1CCCO1` (single isomer, unassigned) [Example 459, Methyl [1-{[3-isopropyl-5-methyl-2,4-dioxo-1-(tetrahydrofuran-2-ylmethyl)-1,2,3,4-tetrahydrothieno[2,3-d]pyrimidin-6-yl]methyl}imidazolidin-2-ylidene]carbamate], the IC50 worked out at 4.9 nM.
Next, `COC(=O)N=C1NCCN1Cc1sc2c(c1C)c(=O)n(C(C)C)c(=O)n2CC1CCCO1` (single isomer, unassigned) [Example 460, Methyl [1-{[3-isopropyl-5-methyl-2,4-dioxo-1-(tetrahydrofuran-2-ylmethyl)-1,2,3,4-tetrahydrothieno[2,3-d]pyrimidin-6-yl]methyl}imidazolidin-2-ylidene]carbamate]: 22 nM; `COC(=O)N=C1NCCN1Cc1sc2c(c1C)c(=O)n(CC(C)(C)C)c(=O)n2CC1CCCO1` (single isomer, unassigned) [Example 464, Methyl [1-{[3-(2,2-dimethylpropyl)-5-methyl-2,4-dioxo-1-(tetrahydrofuran-2-ylmethyl)-1,2,3,4-tetrahydrothieno[2,3-d]pyrimidin-6-yl]methyl}imidazolidin-2-ylidene]carbamate]: 9.9 nM.
As for `COC(=O)N=C1NCCN1Cc1sc2c(c1C)c(=O)n(CC(C)(C)C)c(=O)n2CC1CCCO1` (single isomer, unassigned) [Example 465, Methyl [1-{[3-(2,2-dimethylpropyl)-5-methyl-2,4-dioxo-1-(tetrahydrofuran-2-ylmethyl)-1,2,3,4-tetrahydrothieno[2,3-d]pyrimidin-6-yl]methyl}imidazolidin-2-ylidene]carbamate], the IC50 worked out at 13 nM.
As to `COC(=O)N=C1NCCN1Cc1sc2c(c1C)c(=O)n(CC(F)(F)F)c(=O)n2CC1CCO1` (single isomer, unassigned) [Example 466, Methyl [1-{[5-methyl-1-(oxetan-2-ylmethyl)-2,4-dioxo-3-(2,2,2-trifluoroethyl)-1,2,3,4-tetrahydrothieno[2,3-d]pyrimidin-6-yl]methyl}imidazolidin-2-ylidene]carbamate], the half-inhibitory concentration (IC50) stood at 6.6 nM.
As to `COC(=O)N=C1NCCN1Cc1sc2c(c1C)c(=O)n(CC(F)(F)F)c(=O)n2CC1CCO1` (single isomer, unassigned) [Example 467, Methyl [1-{[5-methyl-1-(oxetan-2-ylmethyl)-2,4-dioxo-3-(2,2,2-trifluoroethyl)-1,2,3,4-tetrahydrothieno[2,3-d]pyrimidin-6-yl]methyl}imidazolidin-2-ylidene]carbamate], the IC50 amounted to 30 nM.
For `COC(=O)N=C1NCCN1Cc1sc2c(c1C)c(=O)n(CC(F)(F)F)c(=O)n2CC1CCCO1` (single isomer, unassigned) [Example 468, Methyl [1-{[5-methyl-2,4-dioxo-1-(tetrahydrofuran-2-ylmethyl)-3-(2,2,2-trifluoroethyl)-1,2,3,4-tetrahydrothieno[2,3-d]pyrimidin-6-yl]methyl}imidazolidin-2-ylidene]carbamate], the IC50 was determined as 6.1 nM.
Regarding `COC(=O)N=C1NCCN1Cc1sc2c(c1C)c(=O)n(CC(F)(F)F)c(=O)n2CC1CCCO1` (single isomer, unassigned) [Example 469, Methyl [1-{[5-methyl-2,4-dioxo-1-(tetrahydrofuran-2-ylmethyl)-3-(2,2,2-trifluoroethyl)-1,2,3,4-tetrahydrothieno[2,3-d]pyrimidin-6-yl]methyl}imidazolidin-2-ylidene]carbamate], the IC50 was found to be 8.8 nM.
Turning to `COC(=O)N=C1NCCN1Cc1sc2c(c1C)c(=O)n(CC(C)OC)c(=O)n2CCC(F)(F)F` (single isomer, unassigned) [Example 473, Methyl [1-{[3-(2-methoxypropyl)-5-methyl-2,4-dioxo-1-(3,3,3-trifluoropropyl)-1,2,3,4-tetrahydrothieno[2,3-d]pyrimidin-6-yl]methyl}imidazolidin-2-ylidene]carbamate], the IC50 was 3.4 nM.
Turning to `COC(=O)N=C1NCCN1Cc1sc2c(c1C)c(=O)n(CC(C)OC)c(=O)n2CCC(F)(F)F` (single isomer, unassigned) [Example 474, Methyl [1-{[3-(2-methoxypropyl)-5-methyl-2,4-dioxo-1-(3,3,3-trifluoropropyl)-1,2,3,4-tetrahydrothieno[2,3-d]pyrimidin-6-yl]methyl}imidazolidin-2-ylidene]carbamate], the IC50 stood at 5.6 nM.

Source of the values: US10428083B2, “Heterocyclylmethyl-thienouracile as antagonists of the adenosine-A2B-receptor” (BAYER PHARMA AKTIENGESELLSCHAFT, priority 2015, dated 2019).
